Measured values: patent US4954520A, “1,3-dioxolane derivatives useful in the treatment of inflammation” (G. D. Searle & Co., priority 1989, dated 1990)
Where a name gives a salt, the structure may show the parent alone.

Tested on: LTB4 production in HL-60 cells
Assay: A23187-Induced LTB4 Production in Human Promyelocytic Leukemia HL-60 Cells (HL-60 Cell Assay)
Assay type: cell-based
Settings: for inhibition at 100 µM: 10^-4 M; for inhibition at 10 µM: 10^-5 M; for IC50: A23187-stimulated differentiated HL-60 cells, 10 minutes preincubation at 37° C.
Description: A23187-Induced LTB4 Production in Human Promyelocytic Leukemia HL-60 Cells.
Calcium ionophore A23187 was obtained from Calbiochem (La Jolla, CA). Trans-stilbene oxide was obtained from Sigma (St. Louis, MO). Hanks' balanced salt solution (HBSS) (10X concentrate), 1 M Hepes, and Dulbecco's modified Eagle medium were obtained from GIBCO Laboratories (Grand Island, NY). Fetal bovine serum was obtained from HyClone Laboratories (Logan, UT) The LTB4 and PGE2 radioimmunoassay antibodies were purchased from Amersham International plc (Amersham, UK) and NEN Research Products (N. Billerica, MA), respectively. Reagents for assay of lactate dehydrogenase (LDH) activity were purchased from Beckman (Carlsbad, CA).
Preparation of HL 60 Cells:
HL-60 cells were cultured in Dulbecco's modified Eagle medium (supplementedwith 20% fetal bovine serum, 20 mM Hepes, 100 U/ml penicillin and 100 mcg/ml streptomycin) and maintained at 37° C. in a humidified atmosphere of 5% CO2 in air. Cells from exponentially growing cultures were seeded at 3×10^5 cells/ml and induced to differentiate into granulocyte with 0.8% (v/v) N,N dimethylformamide for 4 days (1,2). Prior to assay, differentiated HL-60 cells were washed once with Hanks' balanced salt solution containing 0.35 mg/ml sodium bicarbonate and 10 mM Hepes, pH 7.3 (HBSS) and resuspended in HBSS at a concentration of 3×10^6 cells/ml.
DMSO or test compounds as 100× concentrates in DMSO were added in duplicate to 1.0 ml HL-60 cell suspensions (3×10^6 cells) and preincubated at 37° C. for 10 minutes in a shaking water bath. After an additional 5 minute incubation with calcium ionophore A23187 (10 mcl @ 5×10^-4 M in DMSO), the cells were pelleted at 12,800×g for 15 seconds and the supernatant removed and stored at […] for quantification of LTB4 or PGE2 via radioimmunoassay and LDH activity.
LTB4 and PGE2 data were expressed as percent inhibition of A23187-stimulated controls. For IC50 determinations, the 4 parameter logistic model was used where y is the percent inhibition response and×is the log10 concentration of the inhibitor: [formula] Nonlinear regression was performed using the SAS (3) procedure NLIN to obtain least squares estimates of the four parameters in the above equation: y.infin. (maximum), Y0 (minimum), a (log10 IC50) and b (slope factor). Increases in mean LDH levels for A23187-stimulated cells in the presence of test compound were tested for significance using a one tailed two sample Student's t-test.

| Structure (SMILES) | inhibition at 100 µM (A23187-stimulated HL-60 cells) | inhibition at 10 µM (A23187-stimulated HL-60 cells) | IC50 | inhibition at 1 µM (10^-6 M, A23187-stimulated HL-60 cells) |
| --- | --- | --- | --- | --- |
| CCCCCCCCCC/C=C/C=C/C1OCC(CCCC(=O)O)O1 (racemic) [Example 5B (Racemic Mixture), 2-Tetradeca-1E,3E-dienyl-1,3-dixolane-4-butanoic acid, lithium salt] | 96% | 80% | 6.8 µM |  |
| CCCCCCCCCC/C=C/C=C/C1OCC(c2cccc(C(=O)O)c2)O1 (racemic) [Example 7B (Racemic Mixture), 3-(2-Tetradeca-1E,3E-dienyl-1,3-dioxolan-4-yl)benzoic acid, lithium salt] | 89% | 91% | 2.5 µM | 21% |
| CCCCCCC/C=C/C=C/C1OCC(CCCC(=O)O)O1 (racemic) [Example 8B, (±) 2-Undeca-1E,3E-dienyl-1,3-dioxolane-4-butanoic acid, lithium salt] | 84% |  |  |  |
| CCCCCCCCCC/C=C/C=C/C1OCC(CCCC(=O)O)O1 (single isomer, unassigned) [Example 5B (Single Diastereomer), 2-Tetradeca-1E,3E-dienyl-1,3-dixolane-4-butanoic acid, lithium salt] | 91% | 77% | 7.2 µM |  |
| CCCCCCCCCC/C=C/C=C/C1OCC(c2cccc(C(=O)[O-])c2)O1.[Li+] (single isomer, unassigned) [Example 7B (Single diastereomer), 3-(2-Tetradeca-1E,3E-dienyl-1,3-dioxolan-4-yl)benzoic acid, lithium salt] | 92% | 92% | 3.6 µM |  |
